Test results published in US20170022171A1, “2,5-DISUBSTITUTED CYCLOPENTANECARBOXYLIC ACIDS AND THEIR USE” (Bayer Pharma Aktiengesellschaft, priority 2014, published 2017).

Each compound was assayed on rat hepatocytes (assay: Hepatocyte assay for determination of metabolic stability). Conditions: after incubation with rat hepatocytes.
Assay type: in vitro ADME
Procedure: The metabolic stability of test compounds towards hepatocytes is determined by incubating the compounds at low concentrations (preferably below or around 1 μM) and at low cell counts (preferably at 1*10^6 cells/ml) in order to ensure maximum linearity of kinetic conditions in the experiment. Seven samples from the incubation solution are taken for the LC-MS analysis within a fixed time pattern, in order to determine the half-life (i.e. the degradation) of the particular compound. This half life is used to calculate various “Clearance” parameters (CL) and “Fmax” values (see below).
The CL and Fmax values are a measure of the phase 1 and phase 2 metabolism of the compounds in the hepatocytes. In order to minimize the influence of the organic solvent on the enzymes in the incubation batches, the concentration thereof is generally limited to 1% (acetonitrile) or 0.1% (DMSO).
For all species and breeds, a hepatocyte cell count in the liver of 1.1*10^8 cells/g of liver is expected.
The parameters calculated and the meanings thereof are: • Fmax well-stirred [%] maximum possible bioavailability after oral administration • Calculation: (1−CLblood well-stirred/QH)*100 • CLblood well-stirred [L/(h*kg)] calculated blood clearance (well-stirred model) • Calculation: (QH*CL′intrinsic)/(QH+CL′intrinsic) • CL′intrinsic[ml/(min*kg)] maximum ability of the liver (of the hepatocytes) to metabolize a compound (assuming that the liver blood flow is not rate-limiting) • Calculation: CL′intrinsic, apparent*species-specific hepatocyte count [1.1*10^8/g liver]*species-specific liver weight [g/kg] • CL′intrinsic, apparent[ml/(min*mg)] normalizes the elimination constant by dividing it by the hepatocyte cell count x used (x*10^6/ml) • Calculation: ke1[1/min]/(cell count [x*10^6]/incubation volume [ml]) • (QH=species-specific liver blood flow).

Row | Compound | CLblood (calculated blood clearance, well-stirred) [L/h/kg] | Fmax (maximum possible bioavailability after oral administration, well-stirred) [%]
1 | Cc1ccc2nnn(C[C@H]3CC[C@@H](C(=O)c4ccc(OCc5cccc(OC(F)(F)F)c5)cc4)[C@@H]3C(=O)O)c(=O)c2c1 (racemic) [Example 110, (+)-(1RS,2SR,5RS)-2-[(6-Methyl-4-oxo-1,2,3-benzotriazin-3(4H)-yl)methyl]-5-(4-{[3-(trifluoromethoxy)benzyl]oxy}benzoyl)cyclopentanecarboxylic acid] | 0.40 | 90.4
2 | Cc1ccc2nnn(C[C@H]3CC[C@@H](C(=O)c4ccc(OCc5cccc(C(F)(F)F)c5)cc4)[C@@H]3C(=O)O)c(=O)c2c1 (racemic) [Example 101, (+)-(1RS,2SR,5RS)-2-[(6-Methyl-4-oxo-1,2,3-benzotriazin-3(4H)-yl)methyl]-5-(4-{[3-(trifluoromethyl)benzyl]oxy}benzoyl)cyclopentanecarboxylic acid] | 0.09 | 97.8
3 | Cc1ccc2nnn(C[C@H]3CC[C@@H](C(=O)c4ccc(OCc5ccc(F)cc5)cc4)[C@@H]3C(=O)O)c(=O)c2c1 (racemic) [Example 95, (+)-(1RS,2RS,5SR)-2-{4-[(4-Fluorobenzyl)oxy]benzoyl}-5-[(6-methyl-4-oxo-1,2,3-benzotriazin-3(4H)-yl)methyl]cyclopentanecarboxylic acid] | 0.50 | 88.2
